The subject of assay [1] is rabbit antisera to 24S-hydroxycholesterol (Day 77 bleed, rabbit #72). Nature of the assay: Cross-reactivity in competitive 24HC enzyme immunoassay, antiserum of rabbit #72. The settings on record: for % Cross reactivity: Table 2, antiserum Day 77 bleed, rabbit #72, relative to 24HC; for Bleed #72 % Cross reactivity: Table 3, repeat of the rabbit #72 antisera. The class given is binding. The method, then:
(§1) 24HC Enzyme Immunoassay Protocol
(§2) 1. Known concentrations of 24HC were prepared in 100 mM phosphate, 150 mM NaCl, 1% BSA, pH 7.2 assay buffer containing biotinylated […] (described above) and added to wells of a 96 well microtiter plate that were coated with a goat anti-rabbit IgG antibody. Rabbit polyclonal antibody to 24HC was diluted to a limiting concentration in 100 mM Tris, 150 mM NaCl, 1% BSA buffer and 100 μL was added to each well. The plate was incubated at room temperature for 1 hour with orbital shaking. During this incubation the anti-24HC antibody binds to the goat anti-rabbit IgG antibody on the plate. Also, the 24HC standard competes with the biotinylated 24HC for anti-24HC antibody binding sites. Thus, with more 24HC standard, less biotinylated 24HC binds to the antibody binding sites on the plate.
(§3) 2. Following this incubation, the plate was washed 4 times with 300 μL of 50 mM Tris, 100 mM NaCl, 0.05% Tween-20 buffer. After washing, bound 24HC or bound biotinylated 24HC is bound to the binding sites on the anti-24HC antibodies.
(§4) 3. Streptavidin conjugated to HRP (200 μL), diluted in 100 mM phosphate, 150 mM NaCl, 1% BSA, pH 7.2 assay buffer, was then added to each well to allow detection of the biotinylated 24HC. The plate was then incubated at room temperature for 30 minutes.
(§5) 4. The plate was then washed 4 times with 300 μL of 50 mM Tris, 100 mM NaCl, 0.05% Tween-20 buffer to remove excess streptavidin-HRP conjugate. TMB substrate solution (200 μL) is added to each well. The plates were incubated at room temperature for 30 min.
(§6) 5. After color development, 50 μL of 1N HCl stop solution is added to each well to stop the substrate reaction. The resulting yellow color was read at 450 nm. […]. The intensity of yellow color is inversely proportional to the concentration of 24HC that was added to the well.
The multiple regression line shown therein has an R^2 of 0.996. The detectable range for 24HC for this assay is as shown is 1.56-100 ng/mL. The total assay time is 2 h.
Cross-reactivity of the antisera tested above (Day 77 bleed, rabbit #72) to the following structurally similar molecules was determined:
(§7) Cross-reactivities of antisera taken from another rabbit at Day 77 (rabbit #71), subjected to the same immunization protocol, as well as a repeat of the rabbit #72 antisera, were also determined.

Assay [2] has as its system rabbit antisera to 24S-hydroxycholesterol (Day 77, rabbit #71). Nature of the assay: Cross-reactivity in competitive 24HC enzyme immunoassay, antiserum of rabbit #71. The class given is binding. The settings on record: Table 3; antiserum Day 77, rabbit #71. The method, then: as §1, §2, §3, §4, §5, §6, §7

Molecules are shown by their SMILES.

With `C[C@]12CC[C@H](O)CC1=CC[C@@H]1[C@@H]2CC[C@]2(C)C(=O)CC[C@@H]12` [DHEA], in assay [1], the “% Cross reactivity” value worked out at 0.05% and the “Bleed #72 % Cross reactivity” value is on record as 0.018%. The “Bleed #71 % Cross reactivity” value in assay [2] is 0.015%.

Take `C[C@H](CCCC(C)(C)O)[C@H]1CC[C@H]2[C@@H]3CC=C4C[C@@H](O)CC[C@]4(C)[C@H]3CC[C@]12C` [25-Hydroxycholesterol]: the “Bleed #72 % Cross reactivity” value in assay [1] is on record as 0.725%. Besides, the “Bleed #71 % Cross reactivity” value in assay [2] is reported as 0.19%.

In the case of `CC(C)CC[C@@H](O)[C@@H](C)[C@H]1CC[C@H]2[C@@H]3CC=C4CC(O)CC[C@]4(C)[C@H]3CC[C@]12C` (stereo in doubt) [22-Hydroxycholesterol], in assay [1], the “% Cross reactivity” value was determined as 0.15% and the “Bleed #72 % Cross reactivity” value is 0.11%. Besides, in assay [2], the “Bleed #71 % Cross reactivity” value is 0.020%.

On to `CC(C)CCC[C@@H](C)[C@H]1CC[C@H]2[C@@H]3CC=C4C[C@@H](O)CC[C@]4(C)[C@H]3CC[C@]12C` [Cholesterol], for which, in assay [1], the “% Cross reactivity” value is listed as <0.001% and the “Bleed #72 % Cross reactivity” value is on record as 0.003%. The “Bleed #71 % Cross reactivity” value in assay [2] is on record as 0.002%.

On to `C[C@@H](CO)CCC[C@@H](C)[C@H]1CC[C@H]2[C@@H]3CC=C4C[C@@H](O)CC[C@]4(C)[C@H]3CC[C@]12C` [27-Hydroxycholesterol], for which, in assay [1], the “Bleed #72 % Cross reactivity” value is listed as <0.001%. In assay [2], the “Bleed #71 % Cross reactivity” value is reported as 0.022%.

The record behind these values is patent publication US10197583B2, “Hydroxycholesterol immunoassay” (ENZO LIFE SCIENCES, INC. C/O ENZO BIOCHEM, INC., priority 2010, dated 2019).
